Assay results as given in patent publication US7138361B2, “Herbicidal heterocycles” (E. I. du Pont de Nemours and Company, priority 2000, dated 2006).

Tests used:
Assay type in all cases: in vivo
Sunflower = assay: Test C preemergence; details: scale 0 to 100, 0 no effect, 100 complete control
[1] = tested on: lambsquarters (Chenopodium album); assay: Test B preemergence
Outline: (§1)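 Seeds were planted and sprayed preemergence with test chemical in a non-phytotoxic solvent mixture containing surfactant; postemergence plants (2 to 18 cm, 1- to 4-leaf stage) received the same formulation. Greenhouse hold 13 to 15 days, then visual rating versus untreated controls on a 0–100 scale (0 no effect, 100 complete control).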

[2] = tested on: pigweed (Amaranthus retroflexus); assay: Test B preemergence
Outline: as §1

[3] = tested on: giant foxtail (Setaria faberii); assay: Test B preemergence
Outline: as §1

[4] = tested on: velvetleaf (Abutilon theophrasti); assay: Test B preemergence
Outline: as §1

rice (Oryza saliva) = assay: Test B preemergence
Outline: as §1

[5] = tested on: barnyardgrass (Echinochloa crus-galli); assay: Test B preemergence
Outline: as §1

corn (Zea mays) [6] = assay: Test B preemergence
Outline: as §1

[7] = tested on: Surinam grass (Brachiaria decumbens); assay: Test B preemergence
Outline: as §1

[8] = tested on: cocklebur (Xanthium strumarium); assay: Test B preemergence
Outline: as §1

[9] = tested on: morning glory (Ipomoea hederacea); assay: Test B preemergence
Outline: as §1

[10] = tested on: crabgrass (Digitaria sanguinalis); assay: Test B preemergence
Outline: as §1

Nightshade = assay: Test C preemergence; details: visual evaluation after 12 to 14 days
[11] = tested on: lambsquarters (Chenopodium album); assay: Test B postemergence; details: 13 to 15 days
Outline: as §1

[12] = tested on: pigweed (Amaranthus retroflexus); assay: Test B postemergence; details: 13 to 15 days
Outline: as §1

[13] = tested on: giant foxtail (Setaria faberii); assay: Test B postemergence; details: 13 to 15 days
Outline: as §1

[14] = tested on: velvetleaf (Abutilon theophrasti); assay: Test B postemergence; details: 13 to 15 days
Outline: as §1

wild oat (Avena fatua) = assay: Test B postemergence; details: 13 to 15 days
Outline: as §1

[15] = tested on: wheat (Triticum aestivum); assay: Test B postemergence; details: 13 to 15 days
Outline: as §1

[16] = tested on: barnyardgrass (Echinochloa crus-galli); assay: Test B postemergence; details: 13 to 15 days
Outline: as §1

corn (Zea mays) [17] = assay: Test B postemergence; details: 13 to 15 days
Outline: as §1

[18] = tested on: Surinam grass (Brachiaria decumbens); assay: Test B postemergence; details: 13 to 15 days
Outline: as §1

[19] = tested on: cocklebur (Xanthium strumarium); assay: Test B postemergence; details: 13 to 15 days
Outline: as §1

[20] = tested on: morning glory (Ipomoea hederacea); assay: Test B postemergence; details: 13 to 15 days
Outline: as §1

[21] = tested on: blackgrass (Alopecurus myosuroides); assay: Test B postemergence; details: 13 to 15 days
Outline: as §1

[22] = tested on: crabgrass (Digitaria sanguinalis); assay: Test B postemergence; details: 13 to 15 days
Outline: as §1

[23] = Preemergence, Rate 500 g/ha, scale 0 to 100, 0 no effect, 100 complete control
[24] = preemergence, Rate 125 g/ha, scale of 0 to 100 where 0 is no effect and 100 is complete control, 13 to 15 days
[25] = Rate 125 g/ha, scale 0 (no effect) to 100 (complete control)
[26] = Rate 500 g/ha, scale 0 to 100, 0 is no effect, 100 is complete control

CCC(C)c1ccn(C2CCN(c3cccc(OC(C)C)c3)C2=O)n1 (stereo not drawn) [Compound 83]
Plant response rating, Sunflower (Sunflower; Rate 250 g/ha): 0
Plant response rating, Lambsquarters [1, 23]: 100
Plant response rating, Lambsquarters [1, 24]: 100
Plant response rating, Pigweed [2, 23]: 100
Plant response rating, Pigweed [2, 24]: 100
Plant response rating, Foxtail, Giant [3, 23]: 100
Plant response rating, Foxtail, Giant [3, 24]: 100
Plant response rating, Velvetleaf [4, 23]: 0
Plant response rating, Velvetleaf [4, 24]: 0
Plant response rating, Rice (rice (Oryza saliva); [23]): 100
Plant response rating, Rice (rice (Oryza saliva); [24]): 20
Plant response rating, Barnyardgrass [5, 23]: 100
Plant response rating, Barnyardgrass [5, 24]: 100
Plant response rating, Corn (corn (Zea mays) [6]; [23]): 20
Plant response rating, Corn (corn (Zea mays) [6]; [24]): 20
Plant response rating, Surinam grass [7, 23]: 90
Plant response rating, Surinam grass [7, 24]: 70
Plant response rating, Cocklebur [8, 23]: 0
Plant response rating, Cocklebur [8, 24]: 0
Plant response rating, Morningglory [9, 24]: 0
Plant response rating, Crabgrass [10, 23]: 100
Plant response rating, Crabgrass [10, 24]: 100
Plant response rating (0 to 100), Nightshade (Nightshade; Rate 500 g/ha): 100
Plant response rating, Lambsquarters [11, 25]: 10
Plant response rating, Lambsquarters [11, 26]: 60
Plant response rating, Pigweed [12, 25]: 0
Plant response rating, Pigweed [12, 26]: 10
Plant response rating, Foxtail, Giant [13, 25]: 0
Plant response rating, Foxtail, Giant [13, 26]: 0
Plant response rating, Velvetleaf [14, 25]: 0
Plant response rating, Velvetleaf [14, 26]: 0
Plant response rating, Wild Oat (wild oat (Avena fatua); [25]): 0
Plant response rating, Wild Oat (wild oat (Avena fatua); [26]): 0
Plant response rating, Wheat [15, 25]: 0
Plant response rating, Wheat [15, 26]: 0
Plant response rating, Barnyardgrass [16, 25]: 0
Plant response rating, Barnyardgrass [16, 26]: 0
Plant response rating, Corn (corn (Zea mays) [17]; [25]): 0
Plant response rating, Corn (corn (Zea mays) [17]; [26]): 0
Plant response rating, Surinam grass [18, 25]: 0
Plant response rating, Surinam grass [18, 26]: 0
Plant response rating, Cocklebur [19, 25]: 10
Plant response rating, Cocklebur [19, 26]: 10
Plant response rating, Morningglory [20, 25]: 0
Plant response rating, Morningglory [20, 26]: 10
Plant response rating, Blackgrass [21, 25]: 0
Plant response rating, Blackgrass [21, 26]: 0
Plant response rating, Crabgrass [22, 25]: 0
Plant response rating, Crabgrass [22, 26]: 0

CCCC(C)c1ccn(C2OCN(c3cccc(C(F)(F)F)c3)C2=O)n1 (stereo not drawn) [Compound 89]
Plant response rating, Sunflower (Sunflower; Rate 250 g/ha): 0
Plant response rating, Lambsquarters [1, 23]: 100
Plant response rating, Lambsquarters [1, 24]: 100
Plant response rating, Pigweed [2, 23]: 100
Plant response rating, Pigweed [2, 24]: 90
Plant response rating, Foxtail, Giant [3, 23]: 100
Plant response rating, Foxtail, Giant [3, 24]: 90
Plant response rating, Velvetleaf [4, 23]: 0
Plant response rating, Velvetleaf [4, 24]: 0
Plant response rating, Rice (rice (Oryza saliva); [23]): 10
Plant response rating, Rice (rice (Oryza saliva); [24]): 0
Plant response rating, Barnyardgrass [5, 23]: 100
Plant response rating, Barnyardgrass [5, 24]: 80
Plant response rating, Corn (corn (Zea mays) [6]; [23]): 0
Plant response rating, Corn (corn (Zea mays) [6]; [24]): 0
Plant response rating, Surinam grass [7, 23]: 100
Plant response rating, Surinam grass [7, 24]: 60
Plant response rating, Cocklebur [8, 23]: 0
Plant response rating, Cocklebur [8, 24]: 0
Plant response rating, Morningglory [9, 23]: 0
Plant response rating, Morningglory [9, 24]: 0
Plant response rating, Crabgrass [10, 23]: 100
Plant response rating, Crabgrass [10, 24]: 90
Plant response rating (0 to 100), Nightshade (Nightshade; Rate 500 g/ha): 30
Plant response rating, Lambsquarters [11, 26]: 100
Plant response rating, Pigweed [12, 26]: 90
Plant response rating, Foxtail, Giant [13, 25]: 90
Plant response rating, Foxtail, Giant [13, 26]: 70
Plant response rating, Velvetleaf [14, 26]: 0
Plant response rating, Wild Oat (wild oat (Avena fatua); [26]): 0
Plant response rating, Wheat [15, 26]: 0
Plant response rating, Barnyardgrass [16, 25]: 0
Plant response rating, Barnyardgrass [16, 26]: 80
Plant response rating, Corn (corn (Zea mays) [17]; [25]): 30
Plant response rating, Corn (corn (Zea mays) [17]; [26]): 0
Plant response rating, Surinam grass [18, 25]: 0
Plant response rating, Surinam grass [18, 26]: 0
Plant response rating, Cocklebur [19, 25]: 0
Plant response rating, Cocklebur [19, 26]: 30
Plant response rating, Morningglory [20, 26]: 40
Plant response rating, Blackgrass [21, 25]: 0
Plant response rating, Blackgrass [21, 26]: 0
Plant response rating, Crabgrass [22, 25]: 0
Plant response rating, Crabgrass [22, 26]: 60

Cc1ccc(N2CCC(n3ccc(C(C)(C)C)n3)C2=O)cc1OC(F)F (stereo not drawn) [Compound 79]
Plant response rating, Sunflower (Sunflower; Rate 250 g/ha): 50
Plant response rating, Lambsquarters [1, 23]: 100
Plant response rating, Lambsquarters [1, 24]: 100
Plant response rating, Pigweed [2, 23]: 100
Plant response rating, Pigweed [2, 24]: 100
Plant response rating, Foxtail, Giant [3, 23]: 60
Plant response rating, Foxtail, Giant [3, 24]: 0
Plant response rating, Velvetleaf [4, 23]: 90
Plant response rating, Velvetleaf [4, 24]: 0
Plant response rating, Rice (rice (Oryza saliva); [23]): 90
Plant response rating, Rice (rice (Oryza saliva); [24]): 50
Plant response rating, Barnyardgrass [5, 23]: 100
Plant response rating, Barnyardgrass [5, 24]: 70
Plant response rating, Corn (corn (Zea mays) [6]; [23]): 0
Plant response rating, Corn (corn (Zea mays) [6]; [24]): 0
Plant response rating, Surinam grass [7, 23]: 90
Plant response rating, Surinam grass [7, 24]: 70
Plant response rating, Cocklebur [8, 23]: 0
Plant response rating, Cocklebur [8, 24]: 0
Plant response rating, Morningglory [9, 23]: 100
Plant response rating, Morningglory [9, 24]: 0
Plant response rating, Crabgrass [10, 23]: 100
Plant response rating, Crabgrass [10, 24]: 100
Plant response rating (0 to 100), Nightshade (Nightshade; Rate 500 g/ha): 90
Plant response rating, Lambsquarters [11, 25]: 0
Plant response rating, Lambsquarters [11, 26]: 10
Plant response rating, Pigweed [12, 25]: 70
Plant response rating, Pigweed [12, 26]: 70
Plant response rating, Foxtail, Giant [13, 25]: 0
Plant response rating, Foxtail, Giant [13, 26]: 0
Plant response rating, Velvetleaf [14, 25]: 0
Plant response rating, Velvetleaf [14, 26]: 0
Plant response rating, Wild Oat (wild oat (Avena fatua); [25]): 0
Plant response rating, Wild Oat (wild oat (Avena fatua); [26]): 0
Plant response rating, Wheat [15, 25]: 0
Plant response rating, Wheat [15, 26]: 0
Plant response rating, Barnyardgrass [16, 25]: 0
Plant response rating, Barnyardgrass [16, 26]: 0
Plant response rating, Corn (corn (Zea mays) [17]; [25]): 0
Plant response rating, Corn (corn (Zea mays) [17]; [26]): 0
Plant response rating, Surinam grass [18, 25]: 0
Plant response rating, Surinam grass [18, 26]: 0
Plant response rating, Cocklebur [19, 25]: 30
Plant response rating, Cocklebur [19, 26]: 30
Plant response rating, Morningglory [20, 25]: 30
Plant response rating, Morningglory [20, 26]: 40
Plant response rating, Blackgrass [21, 25]: 0
Plant response rating, Blackgrass [21, 26]: 0
Plant response rating, Crabgrass [22, 25]: 0
Plant response rating, Crabgrass [22, 26]: 0

O=C1C(n2ccc(C3CCCCC3)n2)SCN1c1cccc(C(F)(F)F)c1 (stereo not drawn) [Compound 52]
Plant response rating, Sunflower (Sunflower; Rate 125 g/ha): 0
Plant response rating, Lambsquarters [1, 23]: 100
Plant response rating, Lambsquarters [1, 24]: 100
Plant response rating, Pigweed [2, 23]: 30
Plant response rating, Pigweed [2, 24]: 0
Plant response rating, Foxtail, Giant [3, 23]: 100
Plant response rating, Foxtail, Giant [3, 24]: 90
Plant response rating, Velvetleaf [4, 23]: 0
Plant response rating, Rice (rice (Oryza saliva); [23]): 0
Plant response rating, Rice (rice (Oryza saliva); [24]): 0
Plant response rating, Barnyardgrass [5, 23]: 100
Plant response rating, Barnyardgrass [5, 24]: 0
Plant response rating, Corn (corn (Zea mays) [6]; [23]): 20
Plant response rating, Corn (corn (Zea mays) [6]; [24]): 0
Plant response rating, Surinam grass [7, 23]: 0
Plant response rating, Surinam grass [7, 24]: 0
Plant response rating, Cocklebur [8, 23]: 0
Plant response rating, Cocklebur [8, 24]: 0
Plant response rating, Morningglory [9, 23]: 0
Plant response rating, Morningglory [9, 24]: 0
Plant response rating, Crabgrass [10, 23]: 100
Plant response rating, Crabgrass [10, 24]: 100
Plant response rating (0 to 100), Nightshade (Nightshade; Rate 250 g/ha): 30
Plant response rating, Lambsquarters [11, 25]: 0
Plant response rating, Lambsquarters [11, 26]: 0
Plant response rating, Pigweed [12, 25]: 0
Plant response rating, Pigweed [12, 26]: 0
Plant response rating, Foxtail, Giant [13, 25]: 0
Plant response rating, Foxtail, Giant [13, 26]: 0
Plant response rating, Velvetleaf [14, 25]: 0
Plant response rating, Velvetleaf [14, 26]: 0
Plant response rating, Wild Oat (wild oat (Avena fatua); [25]): 0
Plant response rating, Wild Oat (wild oat (Avena fatua); [26]): 0
Plant response rating, Wheat [15, 25]: 0
Plant response rating, Wheat [15, 26]: 0
Plant response rating, Barnyardgrass [16, 25]: 0
Plant response rating, Barnyardgrass [16, 26]: 0
Plant response rating, Corn (corn (Zea mays) [17]; [25]): 20
Plant response rating, Corn (corn (Zea mays) [17]; [26]): 20
Plant response rating, Surinam grass [18, 25]: 0
Plant response rating, Surinam grass [18, 26]: 0
Plant response rating, Cocklebur [19, 25]: 0
Plant response rating, Cocklebur [19, 26]: 0
Plant response rating, Morningglory [20, 25]: 0
Plant response rating, Morningglory [20, 26]: 0
Plant response rating, Blackgrass [21, 25]: 0
Plant response rating, Blackgrass [21, 26]: 0
Plant response rating, Crabgrass [22, 25]: 0
Plant response rating, Crabgrass [22, 26]: 0
